Experimental data: patent publication US20100233676A1, “HIGH AFFINITY FLUOROCHROME BINDING PEPTIDES” (priority 2007, published 2010)

Assays:
[1] = tested on: IQSPHFF peptide (SEQ ID NO:1), displayed on phage; assay: Binding of IQSPHFF phage to BSA-conjugated fluorochromes; conditions: FIG. 3A
Description: FIG. 3 presents exemplary data showing molecular modeling of IQSPHFF binding to VT-680. FIG. 3A. Binding affinities of IQSPHFF phage to BSA-conjugated fluorochromes via ELISA. FIG. 3B. Schematic π-π bonding between the phenylalanines of the peptide and the indole or benzoindole subunit of VT680 FIG. 3C. […] FIG. 3D. Illustrating a possible interaction of the peptide hydrophobic isoleucine and the hydrophobic alkene of the fluorochrome.
The affinity of IQSPHFF was determined using […] for different commercially available benzindol fluorochromes (Cy 3.5, Cy 5.5, VT680 and AF750). […] FIG. 3A.
The N-hydroxysuccinimide (NHS) ester of the benzindol fluorochromes VT680, GH680, Cy3.5, Cy5.5 or AF750 (1 mg) were conjugated to bovine serum albumin (BSA 100 mg/mL; 0.3 M NaCO3 buffer, pH 8.6) under reaction conditions of approximately tenfold molar excess VT680 to BSA. BSA-fluorochrome conjugate or BSA was adsorbed (5.0 μg/0.1 ml well, w/vol) overnight to wells of a Nunc Maxisorp plage (Nunc, Rochester, N.Y.). Supernatants were discarded and washed twice with PBS and blocked (5% BSA, 0.3 M NaCO3, pH 8.6, room temperature, 45 min). […]
Readout was depicted as the mean difference between absorbances in the BSA-fluorochrome containing wells and the BSA-only (negative control) wells. […]

HT1080 cells = assay: In vitro cell labeling of HT1080 cells, fluorescence plate reader; format: cell-based; conditions: free (unconjugated) peptide
Description: HT1080 […] cells (20,000 cells/well) were washed 3× with PBS to remove media then incubated with 0.1 mL of […] of Ac-IQSPHFF-NHS peptide or vehicle (PBS with 1% DMSO) for 1 hour at 37° C. Subsequent to incubation, cells were washed then incubated for 1 hour at 37° C. in the dark with 1 nmole of GH680 or 1 nmole of GH680+5 nmoles of underivatized peptide (competition experiment). Cells were then washed 6× with PBS+0.1% Tween 20 and analyzed via fluorescence plate reader GeminiXS (Molecular Devices). The IQSPHFF peptide sequence was covalently conjugated onto HT1080 cells and incubated with 5 nM of NIRF (VT680). Cells conjugated with IQSPHFF bound VT680>120-fold better than cells not conjugated with IQSPHFF. In addition, free (unconjugated) IQSPHFF peptide was able to compete for 98% of the binding of fluorochrome to peptide labeled cells, indicating the specificity of the interaction. FIG. 8A.

Substance | affinity of IQSPHFF, relative between fluorochromes [1] | competition of fluorochrome binding to peptide labeled cells by free peptide (HT1080 cells) [%]
Cy5.5 | approximately four-fold less biding than VT680 | –
IQSPHFF | – | 98
